According to patent US20230061417A1, “THIENOPYRIMIDINE DERIVATIVES AS LPA RECEPTOR 2 INHIBITORS” (CHIESI FARMACEUTICI S.P.A., priority 2019, published 2023):
pIC50: −log10 of the molar value. Like-named read-outs stand apart in the source and are kept apart here.

Target: T1, human recombinant LPA2 (Homo sapiens, UniProt Q9HBW0)
T1 construct: expressed in transfected cells; host or cells: CHO (CHO-hLPA2 cell line)
Test: FLIPR calcium mobilization assay, LPA2 antagonism in CHO-hLPA2 cells
Assay type: cell-based
Method: The effectiveness of compounds of the present invention as LPA2 antagonist can be determined at the human recombinant LPA2 expressed in CHO cells, using a FLIPR assay in 384 well format.
CHO-hLPA2 cell lines are cultured in a humidified incubator at 5% CO2 in DMEM/F-12 (1:1) MIXTURE with 2 mM Glutamax, supplemented with 10% of Foetal Bovine Serum, 1 mM Sodium Pyruvate, 11 mM Hepes and 1× Penicillin/Streptomycin. CHO hLPA2 cells are seeded into black walled clear-bottom 384-well plates (#781091, Greiner Bio-One GmbH) at a density of 7,500 cells per well in 50 μl culture media and grown overnight in a 37° C. humidified CO2-incubator. Serial dilutions (1:3 or 1:4, 11 points CRC) of compounds are performed in 100% DMSO at 200× the final concentration. The compounds are diluted 1:50 prior to the experiment with Assay Buffer (20 mM HEPES, 145 mM NaCl, 5 mM KCl, 5.5 mM glucose, 1 mM MgCl2 and 2 mM CaCl2, pH 7.4 containing 0.01% Pluronic F-127) to obtain a solution corresponding to […] the final concentration in the assay (4×, 2% DMSO). The final concentration of DMSO in the assay will be 0.5% in each well. Medium is removed by aspiration and cells are then incubated with 30 μl of a loading solution containing 5 μM of the cytoplasmic Ca2+ indicator Cal-520 AM in Assay Buffer containing 2.5 mM probenecid for 30 min at 37° C. incubator (cell loading). The loaded cell plates are transferred into the FLIPR instrument and calcium responses are monitored during the on-line addition protocols. For testing of compounds, after the cell loading, 10 μl/well of 4× antagonists' solution was added onto the cells. After 30 min pre-incubation (at 37° C.), 10 μl/well of 5× concentrated LPA EC80 was added and Ca2+ mobilization responses was followed during the on-line addition protocol. Intracellular peak fluorescence values subtracted by baseline fluorescence are exported and analysed to determine IC50 values, respectively. The calcium response is expressed as percentage of the maximal inhibition of the EC80 agonist response.
The raw data (peak height expressed as relative fluorescence units) are normalized and transformed into “percent of inhibition”. Curve fitting and pIC50 (−Log IC50) estimations are carried out using a four-parameter logistic model using XLfit Software.

[1] = human recombinant LPA2 in CHO cells, LPA EC80 stimulation, 30 min pre-incubation, read-out: LPA2 IC50

T1 sequence (Q9HBW0 whole entry): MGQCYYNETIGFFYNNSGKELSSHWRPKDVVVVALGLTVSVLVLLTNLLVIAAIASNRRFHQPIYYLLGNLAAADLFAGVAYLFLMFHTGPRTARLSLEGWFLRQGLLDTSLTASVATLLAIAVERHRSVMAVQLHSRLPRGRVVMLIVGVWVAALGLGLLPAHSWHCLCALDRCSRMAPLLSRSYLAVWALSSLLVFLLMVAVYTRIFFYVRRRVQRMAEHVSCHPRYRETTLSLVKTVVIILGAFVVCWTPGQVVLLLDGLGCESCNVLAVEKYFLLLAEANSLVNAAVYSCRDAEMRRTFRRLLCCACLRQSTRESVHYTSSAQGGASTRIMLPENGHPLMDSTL

SMILES	pIC50 [1]	pIC50 (same in vitro assay as Table 2, read-out: IC50 on LPA2 receptor)
COC(=O)Nc1nc(C)c(S(=O)(=O)N2CCN(C[C@H](C)Nc3nc(C4CC4)nc4c(C)csc34)CC2)s1 [Example 31, methyl N-[5-({4-[(2S)-2-({2-cyclopropyl-7-methylthieno[3,2-d]pyrimidin-4-yl}amino)propyl]piperazin-1-yl}sulfonyl)-4-methyl-1,3-thiazol-2-yl]carbamate]	7.00 to 8.00	
COC(=O)Nc1nc(C)c(S(=O)(=O)N2CCN(C[C@H](C)Nc3nc(Cl)nc4c(C(F)(F)F)csc34)CC2)s1 [Example 32, methyl N-[5-({4-[(2S)-2-{[2-chloro-7-(trifluoromethyl)thieno[3,2-d]pyrimidin-4-yl]amino}propyl]piperazin-1-yl}sulfonyl)-4-methyl-1,3-thiazol-2-yl]carbamate]	> 6.00	
COC(=O)Nc1nc(C)c(S(=O)(=O)N2CCN(C[C@H](C)Nc3nc(C4CC4)nc4c(C(F)(F)F)csc34)CC2)s1 [Example 34, methyl N-[5-({4-[(2S)-2-{[2-cyclopropyl-7-(trifluoromethyl)thieno[3,2-d]pyrimidin-4-yl]amino}propyl]piperazin-1-yl}sulfonyl)-4-methyl-1,3-thiazol-2-yl]carbamate]	> 8.00	
CCc1nc(N[C@@H](C)CN2CCN(S(=O)(=O)c3sc(NC(C)=O)nc3C)CC2)c2scc(C)c2n1 [Example 36, N-[5-({4-[(2S)-2-({2-ethyl-7-methylthieno[3,2-d]pyrimidin-4-yl}amino)propyl]piperazin-1-yl}sulfonyl)-4-methyl-1,3-thiazol-2-yl]acetamide]	> 6.00	
CCc1nc(N[C@@H](C)CN2CCN(S(=O)(=O)c3sc(NC(=O)OC)nc3C)CC2)c2scc(C)c2n1 [Example 38, methyl N-[5-({4-[(2S)-2-({2-ethyl-7-methylthieno[3,2-d]pyrimidin-4-yl}amino)propyl]piperazin-1-yl}sulfonyl)-4-methyl-1,3-thiazol-2-yl]carbamate]	7.00 to 8.00	
COC(=O)Nc1nc(C)c(S(=O)(=O)N2CCN(C[C@H](C)Nc3ncnc4c(-c5cccnc5)cn(C)c34)CC2)s1 [comparative Example A, Methyl (S)-(4-methyl-5-((4-(2-((5-methyl-7-(pyridin-3-yl)-5H-pyrrolo[3,2-d]pyrimidin-4-yl)amino)propyl)piperazin-1-yl)sulfonyl)thiazol-2-yl)carbamate, reference compound]		< 5.70

Other lines, results leading:

pIC50 [1]	pIC50 (same in vitro assay as Table 2, read-out: IC50 on LPA2 receptor)	SMILES
> 6.00		Cc1nc(NC(=O)C2CN(C(=O)OC(C)(C)C)C2)sc1S(=O)(=O)N1CCN(C[C@H](C)Nc2ncnc3c(C)csc23)CC1 [Example 33, tert-butyl 3-{[4-methyl-5-({4-[(2S)-2-({7-methylthieno[3,2-d]pyrimidin-4-yl}amino)propyl]piperazin-1-yl}sulfonyl)-1,3-thiazol-2-yl]carbamoyl}azetidine-1-carboxylate]
7.00 to 8.00		CC(=O)Nc1nc(C)c(S(=O)(=O)N2CCN(C[C@H](C)Nc3nc(C4CC4)nc4c(C)csc34)CC2)s1 [Example 35, N-[5-({4-[(2S)-2-({2-cyclopropyl-7-methylthieno[3,2-d]pyrimidin-4-yl}amino)propyl]piperazin-1-yl}sulfonyl)-4-methyl-1,3-thiazol-2-yl]acetamide]
> 6.00		COC(=O)Nc1nc(C)c(S(=O)(=O)N2CCN(C[C@H](C)Nc3nc(C)nc4c(C)csc34)CC2)s1 [Example 37, Methyl N-[5-({4-[(2S)-2-({2,7-dimethylthieno[3,2-d]pyrimidin-4-yl}amino)propyl]piperazin-1-yl}sulfonyl)-4-methyl-1,3-thiazol-2-yl]carbamate]
